Measurements reported in the NIST ThermoML archive (doi:10.1021/je1002829).
± gives the expanded uncertainty stated by the source.

Experiments:
[1] = for mass density: 101.33 kPa, Liquid, Vibrating tube method
[2] = xn = mol fraction of the nth substance listed; settings: x2 = 0

Structure (SMILES)	surface tension liquid-gas ([1]; 293.15 K) [mN/m]	mass density ([1]; 293.15 K) [kg/m3]	surface tension liquid-gas ([1]; 298.15 K) [mN/m]	mass density ([1]; 298.15 K) [kg/m3]	surface tension liquid-gas ([1]; 303.15 K) [mN/m]	mass density ([1]; 303.15 K) [kg/m3]	surface tension liquid-gas ([1]; 308.15 K) [mN/m]	mass density ([1]; 308.15 K) [kg/m3]	surface tension liquid-gas ([2]; 293.15 K) [mN/m]	surface tension liquid-gas ([2]; 298.15 K) [mN/m]	surface tension liquid-gas ([2]; 303.15 K) [mN/m]	surface tension liquid-gas ([2]; 308.15 K) [mN/m]
CCCC(=O)O [butanoic acid]	26.73 ± 0.78	957.61 ± 0.13	26.19 ± 0.77	952.77 ± 0.13	25.56 ± 0.76	947.94 ± 0.13	25.03 ± 0.75	942.91 ± 0.13				
CCCCCC(=O)O [hexanoic acid]	28.12 ± 0.8	925.38 ± 0.14	27.54 ± 0.79	921.2 ± 0.14	27.12 ± 0.78	917.02 ± 0.14	26.66 ± 0.78	912.6 ± 0.14				
CCCCC(=O)O [pentanoic acid]	27.13 ± 0.79	938.29 ± 0.3	26.8 ± 0.79	933.9 ± 0.3	26.23 ± 0.78	929.39 ± 0.3	25.8 ± 0.77	924.73 ± 0.3				
CCC(=O)O [propanoic acid]	26.68 ± 0.78	993.42 ± 0.12	26.11 ± 0.77	988.21 ± 0.12	25.7 ± 0.76	982.88 ± 0.12	25.16 ± 0.76	977.43 ± 0.12				
O [water] + CCC(=O)O									72.58 ± 1.4	71.81 ± 1.4	71.04 ± 1.4	70.23 ± 1.4
O [water] + CCCC(=O)O									72.58 ± 1.4	71.81 ± 1.4	71.04 ± 1.4	70.23 ± 1.4
O [water] + CCCCC(=O)O									72.58 ± 1.4	71.81 ± 1.4	71.04 ± 1.4	70.23 ± 1.4
O [water] + CCCCCC(=O)O									72.58 ± 1.4	71.81 ± 1.4	71.04 ± 1.4	70.23 ± 1.4
